Here are results for two compounds from patent US20260275242A1, “PHOSPHONATE-FREE CHELATING AGENTS AND METHODS FOR FABRIC CARE” (THE PROCTER & GAMBLE COMPANY, priority 2023, published 2026).

SMILES strings stand for the structures.

Common to all, as to format: physicochemical
Data set [1] is described as follows: Calcium binding efficiency, logK(β110) (Table 1). To be noted: one metal, one ligand, no protons. From the text: (§1) The binding efficiencies may be expressed as a binding constant. A binding constant (also called formation constant or stability constant) is an equilibrium constant for the formation of a complex in solution. It is a measure of the strength of the interaction between the reagents that come together to form the complex. As an example, various stains may comprise catechins as shown in Formula (13).
(§2) In Table 1, the reaction between metals and ligands is described in terms of log K(β110). In this context, K, is the equilibrium constant for the reaction between ligands and metals. The higher K, the more metal is bound. This is illustrated in the following example.
(§3) β, represents the binding efficiency and receives some subscripts (βmlh) to indicate how many metals (m), ligands (l), and protons (h) respectively are involved.

A short description of data set [2]: Iron binding efficiency, logK(β110) (Table 1). To be noted: one metal, one ligand, no protons.
From the text: as §1, §2, §3

Data set [3] in a line: pKa of chelating agents (Table 1). To be noted: successive pKa values; (A)/(B) printed beside the catechin values. From the text: Chelation is a type of bonding of ions and molecules to metal ions. It involves the formation or presence of two or more separate coordinate bonds between a ligand and a metal atom. Without being bound by theory, the stain removal effectiveness of a composition comprising one or more chelating agents may depend at least in part on the ability of the chelating agent(s) to bind to iron, which may be present in some stains, such as fruit or beverage stains. Several factors may impact a chelating agent's ability to bind to iron. These factors may include the pKa of the chelating agent compared to the wash pH, and the affinity of the chelating agent to bind with other metals, materials, or compositions in the wash.
Various embodiments may provide or employ a composition that comprises one or more chelating agents having a pKa that is near to or less than the wash pH. […] Various embodiments may also employ a wash liquor pH of about 10 or less, about 9.5 or less, less than about 9, preferably from about 6.5 to about 8.5, most preferably from about 7.0 to about 8.5. They may also include the step of maintaining the pH of the wash liquor at about 10 or less, about 9.5 or less, less than about 9, preferably from about 6.5 to about 8.5, most preferably from about 7.0 to about 8.5.

Take `CCOC(=O)c1cc(O)c(O)c(O)c1` [Ethyl Gallate]: the “Ca^2+ logK(β110)” value in data set [1] stood at 6.7. In data set [2], the “Fe (III) logK(β110)” value is listed as 14.7. In addition, the pKa (in general, the negative logarithm of the acid dissociation constant) in data set [3] stood at 8.7.
The like results for `COC(=O)c1cc(O)c(O)c(O)c1` [Methyl Gallate] were, in that order, 6.7, 14.7 and 8.7.
